Measured values taken from US20190119284A1, “ErbB Inhibitors and Uses Thereof” (The Regents of the University of California, priority 2016, published 2019).

Experiments:
[1] = target: T1, PRKD2 (Homo sapiens, UniProt Q9BZL6); assay: Nanosyn in vitro kinase profiling: PRKD2; format: biochemical; settings: for inhibition at 1 µM: compound at 1 μM
T1 sequence (Q9BZL6 1-878): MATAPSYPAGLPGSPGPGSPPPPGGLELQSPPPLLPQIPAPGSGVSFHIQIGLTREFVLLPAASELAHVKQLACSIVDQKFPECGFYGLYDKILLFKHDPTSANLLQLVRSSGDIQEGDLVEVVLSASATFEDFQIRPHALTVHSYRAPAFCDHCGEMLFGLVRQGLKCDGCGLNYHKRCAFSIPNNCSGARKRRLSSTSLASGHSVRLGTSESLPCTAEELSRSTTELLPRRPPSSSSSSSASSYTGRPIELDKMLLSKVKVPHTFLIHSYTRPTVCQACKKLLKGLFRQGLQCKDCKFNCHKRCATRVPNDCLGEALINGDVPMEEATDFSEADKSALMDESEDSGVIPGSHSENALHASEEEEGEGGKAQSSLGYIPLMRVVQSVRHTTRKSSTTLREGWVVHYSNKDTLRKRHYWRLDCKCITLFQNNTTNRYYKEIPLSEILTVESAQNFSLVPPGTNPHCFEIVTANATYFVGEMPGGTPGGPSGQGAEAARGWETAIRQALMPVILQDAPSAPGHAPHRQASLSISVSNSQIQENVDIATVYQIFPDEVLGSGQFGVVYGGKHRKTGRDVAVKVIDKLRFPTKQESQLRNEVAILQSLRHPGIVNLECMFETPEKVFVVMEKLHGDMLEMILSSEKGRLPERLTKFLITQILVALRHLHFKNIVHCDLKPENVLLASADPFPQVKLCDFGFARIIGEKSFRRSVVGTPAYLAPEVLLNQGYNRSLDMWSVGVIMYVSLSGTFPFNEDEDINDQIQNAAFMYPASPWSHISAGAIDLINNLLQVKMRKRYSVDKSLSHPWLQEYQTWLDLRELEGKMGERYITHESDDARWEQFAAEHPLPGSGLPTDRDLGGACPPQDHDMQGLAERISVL
Experimental: (§1) This was confirmed by in vitro profiling against a panel of kinases, with compound 2 only showing potent inhibition of EGFR and Ab1 (Table 2).
(§2) In vitro Kinome Screen. In vitro profiling of compound 2 at 100 nM was conducted by Nanosyn.

[2] = target: P38-ALPHA (Homo sapiens, UniProt Q16539); assay: Nanosyn in vitro kinase profiling: P38-ALPHA; format: biochemical; settings: for inhibition at 1 µM: compound at 1 μM
Chain of P38-ALPHA (Q16539 whole entry): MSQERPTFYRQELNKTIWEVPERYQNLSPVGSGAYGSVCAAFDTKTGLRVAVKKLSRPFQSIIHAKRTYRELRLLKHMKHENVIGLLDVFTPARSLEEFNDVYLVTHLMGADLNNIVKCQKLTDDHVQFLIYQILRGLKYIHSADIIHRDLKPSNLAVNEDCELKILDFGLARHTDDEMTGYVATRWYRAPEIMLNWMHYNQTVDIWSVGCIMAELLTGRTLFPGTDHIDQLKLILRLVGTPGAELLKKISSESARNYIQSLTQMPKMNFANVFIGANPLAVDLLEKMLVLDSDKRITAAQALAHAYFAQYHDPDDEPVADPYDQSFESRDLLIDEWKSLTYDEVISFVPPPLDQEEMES
Experimental: as §1, §2

[3] = target: EPH-A2 (Homo sapiens, UniProt P29317); assay: Nanosyn in vitro kinase profiling: EPH-A2; format: biochemical; settings: for inhibition at 1 µM: compound at 1 μM
Chain of EPH-A2 (P29317 24-976, species assumed): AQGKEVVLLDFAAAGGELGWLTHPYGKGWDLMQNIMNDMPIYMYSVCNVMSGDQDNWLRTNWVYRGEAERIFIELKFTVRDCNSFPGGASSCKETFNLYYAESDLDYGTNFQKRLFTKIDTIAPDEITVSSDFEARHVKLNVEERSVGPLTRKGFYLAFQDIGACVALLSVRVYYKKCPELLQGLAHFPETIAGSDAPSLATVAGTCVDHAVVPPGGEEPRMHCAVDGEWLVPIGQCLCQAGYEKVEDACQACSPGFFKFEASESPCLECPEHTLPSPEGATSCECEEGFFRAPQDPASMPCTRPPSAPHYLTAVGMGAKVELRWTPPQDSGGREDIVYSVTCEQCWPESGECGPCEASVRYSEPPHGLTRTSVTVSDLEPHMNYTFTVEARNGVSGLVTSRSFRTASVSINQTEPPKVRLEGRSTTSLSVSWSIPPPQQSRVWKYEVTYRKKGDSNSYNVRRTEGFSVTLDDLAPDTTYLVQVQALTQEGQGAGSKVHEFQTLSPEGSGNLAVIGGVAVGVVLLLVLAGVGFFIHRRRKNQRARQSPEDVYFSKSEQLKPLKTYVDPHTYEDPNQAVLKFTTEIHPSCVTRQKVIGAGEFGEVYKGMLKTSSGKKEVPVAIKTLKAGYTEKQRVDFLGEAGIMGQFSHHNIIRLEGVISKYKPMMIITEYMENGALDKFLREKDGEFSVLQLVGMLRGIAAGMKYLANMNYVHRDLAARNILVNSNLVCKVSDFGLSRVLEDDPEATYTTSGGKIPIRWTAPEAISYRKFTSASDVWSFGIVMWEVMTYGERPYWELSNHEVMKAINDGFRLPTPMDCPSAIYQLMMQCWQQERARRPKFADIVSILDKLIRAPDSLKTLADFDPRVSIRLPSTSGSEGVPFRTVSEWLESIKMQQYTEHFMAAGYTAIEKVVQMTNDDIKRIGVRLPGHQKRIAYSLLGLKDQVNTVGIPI
Experimental: as §1, §2

[4] = target: T2, wt EGFR (Homo sapiens, UniProt P00533); assay: phosphosite signaling on wt EGFR; format: cell-based
T2 construct: leaving the same phosphosites on wt EGFR relatively unaffected up to 1 μM; endogenous in cells

[5] = tested on: NRG autocrine signaling in CHL-1 cells; assay: NRG autocrine feedback signaling in CHL-1 cells (immunoblot); format: cell-based; settings: CHL-1 cells pre-treated with lapatinib 24 h, washed, drug 24 h; at 1 μM
Experimental: Similar results were obtained in FaDu cells, which are also dependent on NRG autocrine signaling (FIGS. 20A-20B).
Immunoblotting. Cells were grown in 6 well plates and treated according to the indicated conditions at which point the media was aspirated, cells were washed with 1 mL of cold PBS, which was then aspirated and the plates were frozen at −80° C. The frozen cells were thawed on the plates in a buffer containing 50 mM Tris pH 7.5, 150 mM NaCl, 1 mM EDTA, and 1% Triton X-100 supplemented with 1× phosphatase (PhoSTOP, Roche) and 1× protease (complete-mini tablets, Roche) inhibitors. Lysates were scraped, transferred to Eppendorf tubes, and cleared by centrifugation at 20,000×g for 20 min at 4° C. The clarified lysates were transferred to chilled, clean tubes, and normalized for protein concentration by Bradford (Bio-Rad). The normalized lysates were diluted with Laemmli loading buffer, and 10 μg of total protein was run on a 4-12% gradient gel (Invitrogen), which was then transferred to […] nitrocellulose (Bio-Rad) and analyzed using the indicated primary antibodies according to the manufacturer's recommendations. Primary antibodies were detected using IRDye secondary antibodies (Li-Cor) according to the manufacturer's recommendations and scanned on an Odyssey imager (Li-Cor). Scanned images were cropped and assembled in Adobe Illustrator 6.

[6] = target: MEK2 (Homo sapiens, UniProt P36507); assay: Nanosyn in vitro kinase profiling: MEK2; format: biochemical; settings: compound at 1 μM
Chain of MEK2 (P36507 whole entry, species assumed): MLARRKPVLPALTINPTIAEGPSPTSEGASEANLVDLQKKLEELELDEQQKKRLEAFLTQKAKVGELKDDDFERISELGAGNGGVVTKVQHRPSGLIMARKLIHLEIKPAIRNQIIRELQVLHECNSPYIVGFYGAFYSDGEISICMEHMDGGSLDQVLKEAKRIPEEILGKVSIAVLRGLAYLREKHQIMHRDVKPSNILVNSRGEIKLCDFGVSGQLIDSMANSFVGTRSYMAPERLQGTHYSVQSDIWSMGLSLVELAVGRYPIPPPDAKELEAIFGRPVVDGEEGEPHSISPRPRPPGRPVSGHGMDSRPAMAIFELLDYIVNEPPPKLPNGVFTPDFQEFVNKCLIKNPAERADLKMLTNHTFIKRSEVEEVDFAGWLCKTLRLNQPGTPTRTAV

[7] = target: PI3K-ALPHA (Homo sapiens, UniProt P42336); assay: Nanosyn in vitro kinase profiling: PI3K-ALPHA; format: biochemical; settings: compound at 1 μM
[8] = tested on: mutationally activated EGFR; assay: proliferation assays of EGFR cell lines (FIG. 7C); format: cell-based; settings: in contrast to lapatinib
[9] = target: DYRK1A (Homo sapiens, UniProt Q13627); assay: Nanosyn in vitro kinase profiling: DYRK1A; format: biochemical; settings: for inhibition at 1 µM: compound at 1 μM
Experimental: as §1, §2

[10] = target: T3, ErbB3-ICD665-1323 (Homo sapiens, UniProt P21860); assay: HER3 Autophosphorylation Assay; format: biochemical; settings: purified clustered HER3 intracellular domain
T3 construct: The HER3 intracellular domain (665-1323) was concentrated on vesicles; made in house
Experimental: HER3 Autophosphorylation Assay. ErbB3-ICD^665-1323 wild-type expression and purification was performed exactly as previously described. To monitor the change in autophosphorylation, 1 μM ErbB3-ICD^665-1323 protein was incubated with inhibitors (varied concentrations noted in the figure) and DOGS-Ni-NTA (prepared as described in Zhang et al.[4]) in 100 mM MOPS pH 7.4, containing 200 mM NaCl, divalent cations (2 mM MnCl2 plus 5 mM MgCl2), 5% glycerol, 0.1 mM DTT and 200 μM ATP for 1 hour at 25 ° C., and the reactions were stopped by adding 50 mM EDTA and SDS-PAGE gel-loading buffer for rapid qualitative comparison of autophosphorylation by SDS-PAGE and immunoblotting with anti-phosphotyrosine (pY20) and anti-(His)5.

[11] = target: ALK (Homo sapiens, UniProt Q9UM73); assay: Nanosyn in vitro kinase profiling: ALK; format: biochemical
Chain of ALK (Q9UM73 19-1620, species assumed): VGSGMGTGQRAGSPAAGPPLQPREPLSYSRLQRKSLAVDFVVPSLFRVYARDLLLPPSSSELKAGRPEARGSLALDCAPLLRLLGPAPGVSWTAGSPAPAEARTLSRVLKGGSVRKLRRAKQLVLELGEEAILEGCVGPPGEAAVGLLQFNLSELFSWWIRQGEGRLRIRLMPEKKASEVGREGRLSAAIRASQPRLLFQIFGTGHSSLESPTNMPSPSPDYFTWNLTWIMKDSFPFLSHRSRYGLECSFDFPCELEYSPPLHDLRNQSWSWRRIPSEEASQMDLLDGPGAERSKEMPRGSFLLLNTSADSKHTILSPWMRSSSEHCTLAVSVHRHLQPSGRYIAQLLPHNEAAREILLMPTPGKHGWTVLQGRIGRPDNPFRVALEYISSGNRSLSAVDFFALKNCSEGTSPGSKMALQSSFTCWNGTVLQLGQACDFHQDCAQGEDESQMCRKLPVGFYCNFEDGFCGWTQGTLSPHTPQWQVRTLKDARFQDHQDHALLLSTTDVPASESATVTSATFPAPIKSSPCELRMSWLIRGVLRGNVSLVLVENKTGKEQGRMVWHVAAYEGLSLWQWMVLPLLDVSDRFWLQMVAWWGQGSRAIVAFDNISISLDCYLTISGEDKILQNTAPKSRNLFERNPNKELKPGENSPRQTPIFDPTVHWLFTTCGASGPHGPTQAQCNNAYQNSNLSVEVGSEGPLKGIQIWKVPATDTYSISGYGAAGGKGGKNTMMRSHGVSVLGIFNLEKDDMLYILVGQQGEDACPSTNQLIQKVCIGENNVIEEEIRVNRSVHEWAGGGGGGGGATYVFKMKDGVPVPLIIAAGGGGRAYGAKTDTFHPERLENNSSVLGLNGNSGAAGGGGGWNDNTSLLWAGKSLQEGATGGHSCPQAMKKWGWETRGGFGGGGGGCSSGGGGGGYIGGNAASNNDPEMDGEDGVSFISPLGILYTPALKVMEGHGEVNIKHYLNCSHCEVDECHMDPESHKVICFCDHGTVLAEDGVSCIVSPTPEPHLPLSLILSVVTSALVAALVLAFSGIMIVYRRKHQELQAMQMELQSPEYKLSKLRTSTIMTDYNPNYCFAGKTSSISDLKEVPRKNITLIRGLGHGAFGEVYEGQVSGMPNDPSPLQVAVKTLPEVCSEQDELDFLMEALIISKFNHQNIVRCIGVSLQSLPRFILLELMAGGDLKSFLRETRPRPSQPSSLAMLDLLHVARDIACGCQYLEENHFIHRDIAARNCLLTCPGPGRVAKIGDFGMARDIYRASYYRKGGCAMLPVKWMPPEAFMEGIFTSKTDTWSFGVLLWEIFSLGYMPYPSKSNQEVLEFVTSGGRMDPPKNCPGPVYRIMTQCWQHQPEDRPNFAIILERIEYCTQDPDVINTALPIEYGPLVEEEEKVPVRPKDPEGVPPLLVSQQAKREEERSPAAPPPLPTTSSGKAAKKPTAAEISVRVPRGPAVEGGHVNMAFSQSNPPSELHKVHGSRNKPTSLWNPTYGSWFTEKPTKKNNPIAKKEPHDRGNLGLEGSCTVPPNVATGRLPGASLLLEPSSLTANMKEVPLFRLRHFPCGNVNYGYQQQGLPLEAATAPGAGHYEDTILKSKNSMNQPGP
Experimental: as §1, §2

[12] = target: TRKA (Homo sapiens, UniProt P04629); assay: Nanosyn in vitro kinase profiling: TRKA; format: biochemical
Chain of TRKA (P04629 33-796, species assumed): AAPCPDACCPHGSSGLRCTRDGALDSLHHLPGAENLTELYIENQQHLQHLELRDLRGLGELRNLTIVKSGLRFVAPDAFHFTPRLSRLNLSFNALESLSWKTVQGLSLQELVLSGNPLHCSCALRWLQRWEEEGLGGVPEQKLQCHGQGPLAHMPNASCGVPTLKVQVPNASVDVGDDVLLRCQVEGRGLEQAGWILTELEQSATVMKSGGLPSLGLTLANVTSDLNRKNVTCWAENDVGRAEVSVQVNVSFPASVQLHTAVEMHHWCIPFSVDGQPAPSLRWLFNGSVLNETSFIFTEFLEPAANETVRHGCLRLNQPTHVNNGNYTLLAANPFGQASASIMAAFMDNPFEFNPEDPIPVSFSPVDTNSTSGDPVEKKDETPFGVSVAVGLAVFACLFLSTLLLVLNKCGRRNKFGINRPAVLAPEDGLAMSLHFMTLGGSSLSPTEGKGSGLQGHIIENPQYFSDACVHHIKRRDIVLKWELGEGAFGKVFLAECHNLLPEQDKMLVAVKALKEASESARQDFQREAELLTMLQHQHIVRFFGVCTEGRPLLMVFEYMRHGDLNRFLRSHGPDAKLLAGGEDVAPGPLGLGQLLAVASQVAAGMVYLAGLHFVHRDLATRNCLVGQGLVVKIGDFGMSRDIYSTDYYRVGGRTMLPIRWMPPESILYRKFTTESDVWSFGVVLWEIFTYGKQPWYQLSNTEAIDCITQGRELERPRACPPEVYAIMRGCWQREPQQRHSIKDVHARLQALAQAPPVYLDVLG
Experimental: as §1, §2

[13] = target: DYRK1B (Homo sapiens, UniProt Q9Y463); assay: Nanosyn in vitro kinase profiling: DYRK1B; format: biochemical
Chain of DYRK1B (Q9Y463 whole entry, species assumed): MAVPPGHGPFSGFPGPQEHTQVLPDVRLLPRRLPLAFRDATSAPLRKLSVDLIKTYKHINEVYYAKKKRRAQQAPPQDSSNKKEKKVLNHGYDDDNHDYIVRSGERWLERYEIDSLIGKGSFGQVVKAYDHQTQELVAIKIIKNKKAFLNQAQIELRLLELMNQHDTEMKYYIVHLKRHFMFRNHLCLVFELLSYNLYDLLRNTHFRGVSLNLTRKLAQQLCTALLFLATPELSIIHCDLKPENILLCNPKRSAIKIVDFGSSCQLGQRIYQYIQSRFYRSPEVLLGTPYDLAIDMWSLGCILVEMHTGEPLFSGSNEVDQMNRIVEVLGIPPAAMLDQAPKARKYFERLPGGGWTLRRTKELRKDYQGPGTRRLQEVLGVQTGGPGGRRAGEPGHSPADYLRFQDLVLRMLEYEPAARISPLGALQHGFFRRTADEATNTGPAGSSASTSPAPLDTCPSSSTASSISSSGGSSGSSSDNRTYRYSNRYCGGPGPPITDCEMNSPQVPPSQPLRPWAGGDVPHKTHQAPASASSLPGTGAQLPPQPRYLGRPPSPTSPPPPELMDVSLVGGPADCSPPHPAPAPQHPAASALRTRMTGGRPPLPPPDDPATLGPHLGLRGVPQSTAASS
Experimental: as §1, §2

[14] = target: TSSK1 (Homo sapiens, UniProt Q9BXA7); assay: Nanosyn in vitro kinase profiling: TSSK1; format: biochemical
Chain of TSSK1 (Q9BXA7 whole entry, species assumed): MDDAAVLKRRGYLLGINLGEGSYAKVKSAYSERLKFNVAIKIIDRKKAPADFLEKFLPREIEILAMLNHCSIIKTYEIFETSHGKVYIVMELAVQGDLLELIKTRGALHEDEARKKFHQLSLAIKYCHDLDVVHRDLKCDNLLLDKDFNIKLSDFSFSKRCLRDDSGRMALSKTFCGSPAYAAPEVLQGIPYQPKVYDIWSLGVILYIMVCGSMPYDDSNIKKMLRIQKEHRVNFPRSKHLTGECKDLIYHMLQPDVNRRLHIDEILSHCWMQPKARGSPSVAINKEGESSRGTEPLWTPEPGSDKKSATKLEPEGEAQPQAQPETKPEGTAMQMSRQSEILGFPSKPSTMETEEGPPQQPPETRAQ
Experimental: as §1, §2

COc1ccc(-c2ccoc2)cc1Nc1ncnc2[nH]cc(-c3cc[nH]n3)c12 [compound 3, N-(5-(furan-3-yl)-2-methoxyphenyl)-5-(1H-pyrazol-3-yl)-7H-pyrrolo[2,3-d]pyrimidin-4-amine]
inhibition at 1 µM [1]: 28% | inhibition at 1 µM [2]: 2% | inhibition at 1 µM [3]: 28% | same phosphosites on wt EGFR relatively unaffected up to [4]: > 1 µM | inhibition of feedback-released signaling [5]: complete inhibition | inhibition at 1 µM [6]: 70% | inhibition at 1 µM [7]: 6% | preferential inhibition in proliferation assays [8]: preferential inhibition of the mutationally activated EGFR | inhibition at 1 µM [9]: 41%

COc1ccc(-c2ccco2)cc1Nc1ncnc2[nH]nc(-c3ccco3)c12 [compound 2, 3-(furan-2-yl)-N-(5-(furan-2-yl)-2-methoxyphenyl)-1H-pyrazolo[3,4-d]pyrimidin-4-amine]
inhibition at 0.1 µM ([1]; compound at 100 nM): 5.46% | inhibition at 1 µM [1]: 26.6% | inhibition at 0.1 µM ([2]; compound at 100 nM): 6.61% | inhibition at 1 µM [2]: 12.9% | inhibition of HER3 auto-phosphorylation [10]: able to inhibit | inhibition at 0.1 µM ([3]; compound at 100 nM): 2.42% | inhibition at 1 µM [3]: 21% | inhibition at 0.1 µM ([11]; compound at 100 nM): 6.14% | inhibition at 1 µM ([11]; compound at 1 μM): 19.8% | inhibition at 0.1 µM ([12]; compound at 100 nM): 2.38% | inhibition at 1 µM ([12]; compound at 1 μM): 4.5% | inhibition at 0.1 µM ([13]; compound at 100 nM): 4.01% | inhibition at 1 µM ([13]; compound at 1 μM): 22.6% | inhibition at 0.1 µM ([9]; compound at 100 nM): 5% | inhibition at 1 µM [9]: 16.7% | inhibition at 0.1 µM ([14]; compound at 100 nM): 0.665% | inhibition at 1 µM ([14]; compound at 1 μM): -3.06%
